Measured values: ChEMBL document CHEMBL4699502, “Discovery of 1-(1H-indazol-4-yl)-3-((1-phenyl-1H-pyrazol-5-yl)methyl) ureas as potent and thermoneutral TRPV1 antagonists” (Bioorg Med Chem Lett, 2020)
Activity calls are given as the source filed them. No cut-off for these calls is given here.

Target: T1, Transient receptor potential cation channel subfamily V member 1 (Homo sapiens, UniProt Q8NER1)
Assay: Antagonist activity at human TRPV1 expressed in CHO-K1 cells assessed as inhibition of capsaicin-induced Ca2+ response treated with compound 6 mins prior to capsaicin addition and measured after overnight incubation by FLIPR assay
Assay type: cell-based
Conditions: not given

T1 sequence (Q8NER1 whole entry): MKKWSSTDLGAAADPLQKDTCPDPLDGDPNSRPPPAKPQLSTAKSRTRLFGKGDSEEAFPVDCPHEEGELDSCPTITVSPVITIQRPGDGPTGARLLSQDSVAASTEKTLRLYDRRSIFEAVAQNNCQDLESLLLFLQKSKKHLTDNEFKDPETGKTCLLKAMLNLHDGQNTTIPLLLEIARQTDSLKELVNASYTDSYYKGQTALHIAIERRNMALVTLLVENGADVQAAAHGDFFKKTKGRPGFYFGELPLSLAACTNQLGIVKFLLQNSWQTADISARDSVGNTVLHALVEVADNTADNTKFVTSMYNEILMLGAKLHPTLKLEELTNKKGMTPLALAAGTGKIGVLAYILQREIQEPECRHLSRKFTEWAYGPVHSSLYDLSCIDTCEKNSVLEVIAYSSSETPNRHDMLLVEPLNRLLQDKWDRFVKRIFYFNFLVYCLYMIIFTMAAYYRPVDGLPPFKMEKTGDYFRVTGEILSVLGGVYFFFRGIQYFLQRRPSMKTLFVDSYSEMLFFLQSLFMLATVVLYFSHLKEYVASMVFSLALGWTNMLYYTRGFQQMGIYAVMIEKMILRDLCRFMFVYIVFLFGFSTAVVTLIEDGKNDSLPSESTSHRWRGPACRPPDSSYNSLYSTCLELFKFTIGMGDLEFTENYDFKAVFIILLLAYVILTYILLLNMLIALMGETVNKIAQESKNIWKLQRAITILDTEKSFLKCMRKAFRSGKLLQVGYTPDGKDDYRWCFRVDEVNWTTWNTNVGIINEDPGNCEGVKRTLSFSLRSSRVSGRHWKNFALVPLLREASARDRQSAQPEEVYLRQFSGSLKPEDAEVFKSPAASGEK

Row | SMILES | Ki [nM]
1 | Cn1ncc2cc(NC(=O)NCc3cc(C(F)(F)F)nn3-c3cccc(Cl)c3)ccc21 | 61
2 | O=C(NCc1cc(C(F)(F)F)nn1-c1ccc(Cl)cc1)Nc1cccc2[nH]ncc12 | 2.5
3 | Cn1ncc2c(NC(=O)NCc3cc(C(F)(F)F)nn3-c3ccc(F)c(Cl)c3)cccc21 | 1.9
4 | O=C(NCc1cc(C(F)(F)F)nn1-c1ccc(F)c(Cl)c1)Nc1cccc2[nH]ncc12 | 0.6
5 | Cn1ncc2c(NC(=O)NCc3cc(C(F)(F)F)nn3-c3ccc(Cl)cc3)cccc21 | 2.7
6 | Cn1ncc2c(NC(=O)NCc3cc(C(F)(F)F)nn3-c3ccc(C(F)(F)F)cc3)cccc21 | 3.9
7 | Cn1ncc2c(NC(=O)NCc3cc(C(C)(C)C)nn3-c3ccc(C(F)(F)F)cc3)cccc21 | 12.4
8 | CC(C)(C)c1cc(CNC(=O)Nc2cccc3[nH]ncc23)n(-c2ccc(F)cc2)n1 | 2.2
9 | Cn1ncc2c(NC(=O)NCc3cc(C(F)(F)F)nn3-c3cccc(F)c3)cccc21 | 7
10 | COc1ccc(-n2nc(C(C)(C)C)cc2CNC(=O)Nc2cccc3[nH]ncc23)cc1 | 62.9

Now from value to compound:

Row | Ki [nM] | SMILES
11 | 9.5 | Cn1ncc2c(NC(=O)NCc3cc(C(C)(C)C)nn3-c3ccc(Cl)cc3)cccc21
12 | 0.4 | Cn1ncc2c(NC(=O)NCc3cc(C(C)(C)C)nn3-c3cccc(Cl)c3)cccc21
13 | 29.5 | CC(=O)n1ncc2c(NC(=O)NCc3cc(C(C)(C)C)nn3-c3cccc(Cl)c3)cccc21

Same assay, conditions: filed as antagonist

Row | SMILES | inhibition
14 | O=C(NCc1cc(C(F)(F)F)nn1-c1cccc(Cl)c1)Nc1ccc2cn[nH]c2c1 | Active

Test system: not listed separately
Assay: In vivo antagonist activity at TRPV1 in mouse assessed as inhibition of capsaicin-induced hypothermia at 10 mg/kg, po
Assay type: functional
Conditions: not given

Row | SMILES | inhibition in vivo at 10 mg/kg [%]
15 | Cn1ncc2c(NC(=O)NCc3cc(C(C)(C)C)nn3-c3cccc(Cl)c3)cccc21 | 14

Target: T1, Transient receptor potential cation channel subfamily V member 1
Assay: Agonist activity at human TRPV1 expressed in CHO-K1 cells assessed as induction of Ca2+ response treated with compound 6 mins prior to capsaicin addition and measured after overnight incubation by FLIPR assay
Assay type: cell-based
Conditions: filed as agonist

Row | SMILES | Activity
16 | Cn1cc2c(NC(=O)NCc3cc(C(F)(F)F)nn3-c3cccc(Cl)c3)cccc2n1 | Active
17 | CC(C)(C)c1cc(CNC(=O)Nc2ccc3[nH]ncc3c2)n(-c2cccc(Cl)c2)n1 | Active
18 | Cn1ncc2cc(NC(=O)NCc3cc(C(C)(C)C)nn3-c3cccc(Cl)c3)ccc21 | Active
19 | Cn1ncc2ccc(NC(=O)NCc3cc(C(C)(C)C)nn3-c3cccc(Cl)c3)cc21 | Active
20 | Cn1cc2c(NC(=O)NCc3cc(C(C)(C)C)nn3-c3cccc(Cl)c3)cccc2n1 | Active

Test system: not listed separately
Assay: Induction of hyperthermia in mouse assessed as effect on body temperature by measuring thermo-neutral activity at 10 mg/kg, po
Assay type: organism-based
Conditions: in vivo

Row | SMILES | Activity
21 | Cn1ncc2c(NC(=O)NCc3cc(C(C)(C)C)nn3-c3cccc(Cl)c3)cccc21 | Non-Toxic

Target: T1, Transient receptor potential cation channel subfamily V member 1
Assay: Partial agonist activity at human TRPV1 expressed in CHO-K1 cells assessed as induction of Ca2+ response treated with compound 6 mins prior to capsaicin addition and measured after overnight incubation by FLIPR assay
Assay type: cell-based
Conditions: filed as partial agonist

Row | SMILES | Activity
22 | CC(C)(C)c1cc(CNC(=O)Nc2ccc3cn[nH]c3c2)n(-c2cccc(Cl)c2)n1 | Active
23 | Cn1ncc2ccc(NC(=O)NCc3cc(C(F)(F)F)nn3-c3cccc(Cl)c3)cc21 | Active
24 | Cc1ccc(-n2nc(C(C)(C)C)cc2CNC(=O)Nc2cccc3[nH]ncc23)cc1C | Active
